In publication PMC5687316 (Acta Pharmaceutica Sinica. B, 2017):
Structures can show the parent of a compound that is named as a salt.

Columns and labels:
UGT1A1 = molecular target: T1, UGT1A1 (Homo sapiens, UniProt P22309); test: Inhibition of NCHN-4-O-glucuronidation in recombinant human UGT1A1; type: biochemical; conditions: for activity at 50 min, 10 µmol/L: human, recombinant human UGT1A1, pH 7.4, probe NCHN (NCHN-4-O-glucuronidation); for Inhibition type: recombinant human UGT1A1, Lineweaver-Burk and Dixon plots
T1 sequence (P22309 26-533): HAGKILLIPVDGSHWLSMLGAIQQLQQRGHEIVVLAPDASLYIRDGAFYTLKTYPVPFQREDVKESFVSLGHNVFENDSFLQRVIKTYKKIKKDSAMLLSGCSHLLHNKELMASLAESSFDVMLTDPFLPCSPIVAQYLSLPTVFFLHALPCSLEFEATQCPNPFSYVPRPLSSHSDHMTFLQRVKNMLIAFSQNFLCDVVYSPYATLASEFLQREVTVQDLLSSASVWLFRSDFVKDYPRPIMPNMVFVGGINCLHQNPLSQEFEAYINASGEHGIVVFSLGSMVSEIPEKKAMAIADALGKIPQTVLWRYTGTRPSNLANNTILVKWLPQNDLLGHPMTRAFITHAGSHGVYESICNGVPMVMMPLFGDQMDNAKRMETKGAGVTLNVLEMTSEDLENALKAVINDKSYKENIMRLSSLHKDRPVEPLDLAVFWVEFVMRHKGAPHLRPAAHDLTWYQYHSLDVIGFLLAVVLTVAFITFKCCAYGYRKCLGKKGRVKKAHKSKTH

UGT1A1 in HLMs = molecular target: T2, UGT1A1 in HLMs (Homo sapiens, UniProt P22309); type: biochemical; conditions: for Inhibition type: HLM, Lineweaver-Burk and Dixon plots; for time dependence of UGT1A1 inhibition: data not shown; for phase II metabolites of the inhibitor in the incubations: UGT1A1/HLM incubations with UDPGA
T2 sequence (P22309 26-533): T1 sequence (P22309 26-533)

[1] = Maximum plasma concentration in humans after oral administration; conditions: human, calculated as Cmax × fu; icotinib 125 mg × 3 daily, erlotinib 150 mg
[2] = Nonspecific binding to HLMs; type: in vitro ADME, human; conditions: HLMs 0.2 mg/mL

Row | fraction unbound (Binding to human plasma) | Ki (UGT1A1) [µM] | IC50 (UGT1A1; IC50, recombinant human UGT1A1 0.06 mg/mL, NCHN-4-O-glucuronidation) [µM] | activity at 50 min, 10 µmol/L (UGT1A1) [%] | Inhibition type (UGT1A1) | Ki (UGT1A1 in HLMs) [µM] | Inhibition type (UGT1A1 in HLMs) | fold difference in Ki between icotinib and erlotinib (UGT1A1 in HLMs; HLMs, NCHN-O-glucuronidation) | time dependence of UGT1A1 inhibition (UGT1A1 in HLMs; HLMs) | IC50 (UGT1A1 in HLMs; IC50, HLM 0.2 mg/mL, NCHN-4-O-glucuronidation) [µM] | phase II metabolites of the inhibitor in the incubations (UGT1A1 in HLMs) | Cmax,u [1] [nM] | binding to HLMs [2] | Structure (SMILES)
1 | 0.11 | 10 | 8.76 ± 0.78 | 36 | Noncompetitive | 8.55 | Noncompetitive | about 7 fold | not time-dependent | 5.15 ± 0.28 | no phase II metabolites | 530 | negligible binding | C#Cc1cccc(Nc2ncnc3cc4c(cc23)OCCOCCOCCO4)c1 [Icotinib, 4-[(3-ethynylphenyl)amino]-6,7-benzo-12-crown-4-quinazoline hydrochloride]
2 | 0.09 | – | – | 19 | Noncompetitive | – | Noncompetitive | – | not time-dependent | – | no phase II metabolites | 550 | negligible binding | C#Cc1cccc(Nc2ncnc3cc(OCCOC)c(OCCOC)cc23)c1 [Erlotinib]
